Test results taken from patent US8288554B2, “Pyridin-3-yl derivatives as immunomodulating agents” (Actelion Pharmaceuticals Ltd., priority 2006, dated 2012).

Test system: circulating lymphocytes
Assay: Assessment of in vivo efficacy: circulating lymphocytes after oral administration
Set-up: species or system rat
Conditions: 6 h after oral administration of 10 mg/kg, normotensive male Wistar rats, compared to vehicle group
Protocol: The efficacy of the compounds of Formula (I) is assessed by measuring the circulating lymphocytes after oral administration of 3 to 30 mg/kg of a compound of Formula (I) to normotensive male Wistar rats. The animals are housed in climate-controlled conditions with a 12 h-light/dark cycle, and have free access to normal rat chow and drinking water. Blood is collected before and 3, 6 and 24 h after drug administration. Full blood is subjected to hematology using Advia Hematology system (Bayer Diagnostics, Zurich, Switzerland).
All data are presented as mean±SEM. Statistical analyses are performed by analysis of variance (ANOVA) using Statistica (StatSoft) and the Student-Newman-Keuls procedure for multiple comparisons. The null hypothesis is rejected when p<0.05.
Lymphocyte counts 6 h after oral administration have been measured for 6 exemplified compounds and are in the range of −77% to −61% with an average of −68%.

Structure (SMILES)	Lymphocyte counts
CCc1cc(-c2noc(-c3cnc(CC(C)C)c(C)c3)n2)cc(C)c1OCC(O)CNC(=O)CO (racemic) [Example 8, N—((RS)-3-{2-Ethyl-4-[5-(6-isobutyl-5-methyl-pyridin-3-yl)-[1,2,4]oxadiazol-3-yl]-6-methyl-phenoxy}-2-hydroxy-propyl)-2-hydroxy-acetamide]	−61%
Cc1cc(-c2noc(-c3cnc(CC(C)C)c(CC(C)C)c3)n2)cc(C)c1OCC(O)CO (racemic) [Example 12, (RS)-3-{4-[5-(5,6-Diisobutyl-pyridin-3-yl)-[1,2,4]oxadiazol-3-yl]-2,6-dimethyl-phenoxy}-propane-1,2-diol]	−61%
Cc1cc(-c2noc(-c3cnc(OC(C)C)c(Cl)c3)n2)cc(C)c1OCC(O)CNC(=O)CO (racemic) [Example 3, N—((RS)-3-{4-[5-(5-chloro-6-isopropoxy-pyridin-3-yl)-[1,2,4]oxadiazol-3-yl]-2,6-dimethyl-phenoxy}-2-hydroxy-propyl)-2-hydroxy-acetamide]	−71%

Biological target: recombinant human S1P1 receptor (Homo sapiens, UniProt P21453)
Assay: GTPγS assay to determine EC50 values
Assay type: biochemical
Conditions: agonist-induced 35S-GTPγS binding, membranes of CHO cells expressing recombinant human S1P1 receptor
Protocol: GTPγS binding assays are performed in 96 well microtiter plates (Nunc, 442587) in a final volume of 200 μl, using membrane preparations of CHO cells expressing recombinant human S1P1 receptor. Assay conditions are 20 mM Hepes (Fluka, 54461), 100 mM NaCl (Fluka, 71378), 5 mM MgCl2 (Fluka, 63064), 0.1% BSA (Calbiochem, 126609), 1 μM GDP (Sigma, G-7127), 2.5% DMSO (Fluka, 41644), […] ^35S-GTPγS (Amersham Biosciences, SJ1320). The pH is 7.4. Test compounds are dissolved and diluted in 100% DMSO and pre-incubated at room temperature for 30 min in 150 μl of the above assay buffer, in the absence of ^35S-GTPγS. After addition of 50 μl of ^35S-GTPγS, the assay is incubated for 1 h at rt. The assay is terminated by transfer of the reaction mixture to a Multiscreen plate (Millipore, MAHFC1H60) using a cell harvester from Packard Biosciences, and the plates are washed with ice-cold 10 mM Na2HPO4/NaH2PO4 (70%/30%), dried, sealed at the bottom and, after addition of 25 μl MicroScint20 (Packard Biosciences, order#6013621), sealed on the top. Membrane-bound ^35S-GTPγS is measured with a TopCount from Packard Biosciences.
EC50 is the concentration of agonist inducing 50% of the maximal specific ^35S-GTPγS binding. Specific binding is determined by subtracting non-specific binding from maximal binding. Maximal binding is the amount of cpm bound to the Multiscreen plate in the presence of 10 μM of S1P. Non-specific binding is the amount of binding in the absence of an agonist in the assay.

recombinant human S1P1 receptor, sequence (P21453 whole entry): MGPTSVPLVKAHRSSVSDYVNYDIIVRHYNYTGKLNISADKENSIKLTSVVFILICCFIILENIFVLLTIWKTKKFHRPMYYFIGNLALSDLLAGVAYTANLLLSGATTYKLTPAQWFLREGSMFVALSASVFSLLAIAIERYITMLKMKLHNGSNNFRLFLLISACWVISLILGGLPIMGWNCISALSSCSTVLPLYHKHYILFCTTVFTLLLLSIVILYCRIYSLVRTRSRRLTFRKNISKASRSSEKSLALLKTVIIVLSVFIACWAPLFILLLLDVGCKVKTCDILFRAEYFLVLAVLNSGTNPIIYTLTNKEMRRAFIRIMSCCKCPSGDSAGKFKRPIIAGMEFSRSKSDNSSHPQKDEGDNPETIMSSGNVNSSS

Structure (SMILES)	EC50
Cc1cc(-c2nc(-c3cc(C)c(OCC(O)CNC(=O)CO)c(C)c3)no2)cnc1CC(C)C (racemic) [Example 5, 2-Hydroxy-N—((RS)-2-hydroxy-3-{4-[5-(6-isobutyl-5-methyl-pyridin-3-yl)-[1,2,4]oxadiazol-3-yl]-2,6-dimethyl-phenoxy}-propyl)-acetamide]	2.7 nM
Cc1cc(-c2noc(-c3cnc(OC(C)C)c(Cl)c3)n2)cc(C)c1OCC(O)CO (racemic) [Example 1, (RS)-3-{4-[5-(5-chloro-6-isopropoxy-pyridin-3-yl)-[1,2,4]oxadiazol-3-yl]-2,6-dimethyl-phenoxy}-propane-1,2-diol]	0.6 nM

Results, then the compound that gave them:

EC50	Structure (SMILES)
5.1 nM	CCc1cc(-c2nc(-c3cnc(OC(C)C)c(C)c3)no2)cc(C)c1OC[C@@H](O)CO [Example 92]
0.6 nM	Cc1cc(-c2nc(-c3cc(C)c(OCC(O)CNC(=O)CO)c(Cl)c3)no2)cnc1CC(C)C (stereo not shown) [Example 42]
3.5 nM	CCc1cc(-c2noc(-c3cnc(OC(C)C)c(C)c3)n2)cc(C)c1CCC(=O)NCCO [Example 89, 3-{2-Ethyl-4-[5-(6-isopropoxy-5-methyl-pyridin-3-yl)-[1,2,4]oxadiazol-3-yl]-6-methyl-phenyl}-N-(2-hydroxy-ethyl)-propionamide]
4 nM	COc1cc(-c2noc(-c3cnc(CC(C)C)c(C)c3)n2)cc(Cl)c1OCC(O)CNC(=O)CO (stereo not shown) [Example 43]
0.1 nM	CCc1cc(-c2noc(-c3cnc(OC(C)C)c(C)c3)n2)cc(C)c1OC[C@@H](O)CNC(=O)CO [Example 88]
